Article PMC8459327, “Identification of molecular glues of the SLP76/14-3-3 protein–protein interaction” (RSC Medicinal Chemistry, 2021)
Values joined by “and” are separate entries in the source; they are usually repeats but may differ in a detail not shown here. Equal values may be shown once. “Also recorded” adds a separate entry of the source. Read-outs that look alike come from different tables or passages of the source.

What was measured:
Type in all cases: binding
[1] = target: 14-3-3ζ/p27 (Homo sapiens, UniProt P46527+P63104); test: HTRF dose-response assay on 14-3-3ζ/p27; conditions: for Selectivity between 14-3-3γ/SLP76 and 14-3-3ζ/p27 (in words): comparison of HTRF dose-responses
Description: (§1) 384 logistic plates were prefilled with 40 μL of compounds at 10 mM, 100% DMSO in column 3. Columns 1, 2 and 4 to 22 were filled with 20 μL of 100% DMSO with a Multidrop Dispenser (ThermoScientific). 2-Fold dilutions of the compounds were carried over from column 3 to 22, with a CyBio FeliX liquid handler (analytikjena). 2 μL of R18 peptide at 20 μM was added to columns 23 and 24 of the Corning 384-well 3574 final assay plates with a Multidrop Dispenser (ThermoScientific). 40 μL of protein mixture, containing Tb labelled 14-3-3γ at 1 nM and AF647 labelled SLP76 at 600 nM in assay buffer (50 mM Tris pH 7.5, 150 mM NaCl, 5 mM MgCl2, 0.05% v/v Tween-20) were added with a Multidrop Dispenser (ThermoScientific) into the Corning 384-well 3574 final assay plates. 2 μL of compounds along with the DMSO control were then transferred with a CyBio FeliX liquid handler (analytikjena) from the 384 logistic plates to the final Corning 384-well 3574 assay plates. […] The dose–response on the first 64 compounds was performed in singlet from a 500 μM top concentration. The repetition on the best 16 compounds was performed in duplicates from a 250 μM top concentration. A dose–response assay on an unrelated 14-3-3ζ/p27 HTRF protein pair was performed as described above. Incubation, data acquisition and normalisation were performed as described above. For EC50 estimation, the data were fitted with a “log(agonist) vs. response (three parameters)” model on GraphPad Prism version 8.1.1 for Windows, GraphPad Software, La Jolla California USA, www.graphpad.com. In the case of duplicates, each data point is the average of a duplicate measurement, standard deviation is reported as error bars.

[2] = target: T1, 14-3-3γ/SLP76 (Homo sapiens, UniProt P61981+Q13094); test: HTRF dose-response assay on 14-3-3γ/SLP76; conditions: 14-3-3γ-Tb 1 nM, SLP76-AF647 600 nM, 5% DMSO, EC50 estimated from fit
Description: 384-Well logistic plates were prefilled with 2 μL of compounds at 2 mM, 100% DMSO, except for columns 1, 2, 23 and 24. Columns 1, 2 were filled with 2 μL of DMSO while columns 23, 24 were filled with 2 μL of the 14-3-3 inhibitor R18 at 20 μM using a Multidrop Dispenser (ThermoScientific). Next, 40 μL of protein mixture containing Tb-labelled 14-3-3γ at 1 nM and AF647 labelled SLP76 at 600 nM in assay buffer (50 mM Tris pH 7.5, 150 mM NaCl, 5 mM MgCl2, 0.05% v/v Tween-20) were added using a Multidrop Dispenser (ThermoScientific). […] To perform the assay, 30 μL volumes were then transferred using a Biomek FX^P Automated Workstation (Beckman Coulter) into Corning 384-well 3574 assay plates. The plates were incubated at room temperature with gentle shaking for 4 h. Finally, the data were collected on a PHERAstar FSX plate reader (BMG Labtech) with an λex 337 nm, λem 665 nm and 620 nm HTRF filter setting. The data were exported in IDBS ActivityBase (IDBS) where they were normalised setting the R18 negative control as 100% inhibition and the DMSO control as 0%. Negative percentage values were therefore associated with a stabilisation of the 14-3-3γ/SLP76 interaction. The threshold of −20% inhibition (or 20% stabilisation) was chosen to select the hits to follow up. The selected hits were retested on 14-3-3γ/SLP76 and were also tested against an unrelated protein pair (IL-17/receptor) in a similar assay setup. […] All the assays were performed as described above.
as §1

[3] = target: T1, 14-3-3γ/SLP76; test: Orthogonal SPR assay, compound flowed with SLP76 over immobilised 14-3-3γ; design: key to SPR RU (%) mass increase 14-3-3γ/SLP76: Ns: no stabilisation observed in SPR; conditions: for Stabilisation in SPR (in words): off-rate / mass on chip versus runs without compound; for SPR RU (%) mass increase 14-3-3γ/SLP76: percentage of SLP76 remained on the chip after the dissociation phase (+240 s)
Description: Of the 16 hit compounds 13 were tested in an orthogonal SPR assay in which each compound was flowed with SLP76 over 14-3-3γ immobilised on the chip. Runs at different concentrations of compound were compared to the runs in absence of compound. […] The effect of the compounds on 14-3-3γ/SLP76 was measured by calculating the percentage of SLP76 remained on the chip after the dissociation phase and immediately before: RU (%) = RU 5 s before dissociation/RU +240 s after dissociation. Dose–response curves were extrapolated from those sensorgrams plotting the RU (%) mass increase over the increase in compound concentrations.
SPR experiments were performed on a Biacore T200 (Cytiva). The Sensor Chip NTA was validated as previously reported by Soini et al.[63] A DMSO tolerance at 2% and 5% was performed in the same way (Fig. S1 ^†).
For compounds testing, the compounds were preincubated with SLP76, in final DMSO concentration of 5%. The compounds were tested at a single concentration of 100 μM and at multiple concentrations following a 3-fold dilution from a top concentration of 100 μM with SLP76 at the saturation concentration of 250 nM. A second set of experiments were performed at multiple concentrations of compound following a 3-fold dilution from a top concentration of 200 μM with SLP76 around the KD concentration of 40 nM. The SLP76/compound mixtures were flowed over the immobilised 14-3-3γ at 30 μL min^−1 for 180 s before allowing dissociation for 5 minutes. After every cycle, the chip was washed with EDTA and Ni^2+ and 14-3-3γ reinjected for the next cycle. The compound effects were measured by calculating the percentage of SLP76 remained on the chip after the dissociation phase and right before: RU (%) = RU 5 s before dissociation/RU +240 s after dissociation. RU response points relative to +240 s after dissociation were also plotted and an apparent EC50 was estimated. The data were fitted with a “One site – specific” model on GraphPad Prism version 8.1.1 for Windows, GraphPad Software, La Jolla California USA, www.graphpad.com.

[4] = stabilisation, same FRET pair, EC50 estimated from fit, read-out: HTRF EC50 14-3-3ζ/p27
[5] = stabilisation, read-out: HTRF EC50 14-3-3γ/SLP76

Sequence of 14-3-3ζ/p27 (P63104 whole entry): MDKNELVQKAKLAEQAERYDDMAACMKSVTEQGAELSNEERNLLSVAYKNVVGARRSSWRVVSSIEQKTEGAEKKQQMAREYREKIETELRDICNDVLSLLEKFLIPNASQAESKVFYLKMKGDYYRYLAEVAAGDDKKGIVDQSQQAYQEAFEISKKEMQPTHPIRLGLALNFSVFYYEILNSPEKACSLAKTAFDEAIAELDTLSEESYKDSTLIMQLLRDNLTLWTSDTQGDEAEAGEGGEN
Sequence of 14-3-3ζ/p27 (P46527 whole entry): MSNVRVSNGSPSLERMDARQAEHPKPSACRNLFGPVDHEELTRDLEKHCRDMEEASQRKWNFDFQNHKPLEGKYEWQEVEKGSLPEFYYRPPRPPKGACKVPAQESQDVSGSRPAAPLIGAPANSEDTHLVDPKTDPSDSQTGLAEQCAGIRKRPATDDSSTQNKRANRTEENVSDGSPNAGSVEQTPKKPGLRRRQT
T1 sequence (Q13094 356-533): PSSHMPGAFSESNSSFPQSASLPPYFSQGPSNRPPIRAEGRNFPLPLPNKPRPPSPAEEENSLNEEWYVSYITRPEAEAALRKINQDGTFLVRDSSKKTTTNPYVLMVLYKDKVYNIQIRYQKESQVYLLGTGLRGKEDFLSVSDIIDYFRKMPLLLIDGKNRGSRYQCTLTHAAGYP
T1 sequence (P61981 whole entry): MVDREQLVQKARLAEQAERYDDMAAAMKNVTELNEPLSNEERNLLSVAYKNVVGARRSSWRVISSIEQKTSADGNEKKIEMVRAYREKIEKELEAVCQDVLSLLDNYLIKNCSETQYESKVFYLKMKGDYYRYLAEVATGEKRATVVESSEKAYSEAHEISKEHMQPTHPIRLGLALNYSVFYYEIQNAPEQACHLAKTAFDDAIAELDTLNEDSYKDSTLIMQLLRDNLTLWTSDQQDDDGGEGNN

| SMILES | Stabilisation of 14-3-3ζ/p27 in HTRF (in words) [1] | Selectivity between 14-3-3γ/SLP76 and 14-3-3ζ/p27 (in words) [1] | EC50 [1, 4] | EC50 [2, 5] | Stabilisation in SPR (in words) [3] | SPR RU (%) mass increase 14-3-3γ/SLP76 [3] | EC50 [1] | EC50 ([2]; HTRF EC50 14-3-3γ/SLP76, stabilisation) | Selectivity for 14-3-3ζ/p27 over 14-3-3γ/SLP76 ([1]; ratio of HTRF EC50s) |
| --- | --- | --- | --- | --- | --- | --- | --- | --- | --- |
| O=C1OC[C@@H]2CCN(Cc3ccccc3)Cc3ccccc3N12 [Compound 1, (6S)-9-benzyl-4-oxa-2,9-diazatricyclo[9.4.0.02,6]pentadeca-1(11),12,14-trien-3-one] | no observed stabilisation | selective for the 14-3-3γ/SLP76 interaction | > 250 µM | 19.1 ± 7.7 µM | orthogonally confirmed and equipotent by SPR | 66.4% |  |  |  |
| CC(C)N1CC[C@H]2COC(=O)N2c2cc(F)ccc2C1 [Compound 2, (6S)-14-fluoro-9-propan-2-yl-4-oxa-2,9-diazatricyclo[9.4.0.02,6]pentadeca-1(15),11,13-trien-3-one] | no observed stabilisation | selective for the 14-3-3γ/SLP76 interaction | > 250 µM | 18.6 ± 5.5 µM | orthogonally confirmed and equipotent by SPR | 67.6% |  |  |  |
| COc1ccc(C(=O)N2C[C@@H]3CN(CCO3)C(=O)[C@@H]3C[C@@H](CN3Cc3ccc4c(c3)OCO4)NC(=O)C[C@@H]3O[C@H](C2)[C@@H](O)[C@H]3O)cc1 [Compound 4, (3S,6S,10S,11R,12S,13R,17R)-4-(1,3-benzodioxol-5-ylmethyl)-11,12-dihydroxy-15-(4-methoxybenzoyl)-18,22-dioxa-1,4,7,15-tetrazatetracyclo[15.3.1.13,6.110,13]tricosane-2,8-dione] |  | selective for the 14-3-3γ/SLP76 system | > 250 µM | 17.4 ± 4.9 µM | orthogonally confirmed by SPR; also recorded: orthogonally confirmed in the SPR assay | 57.1% |  |  |  |
| CC1=CCC2COC(C[N+]3(C)CCCCC3)C1C2 (centres unmarked) [Compound 5, 1-methyl-1-[(8-methyl-3-oxabicyclo[3.3.1]non-7-en-2-yl)methyl]piperidin-1-ium] |  | selective over 14-3-3ζ/p27 | > 250 µM | 71.1 ± 23.9 µM | no observable stabilisation effect | Ns ^d |  |  |  |
| COc1ccc2c(c1)[C@]1(CC[N+](C)(C)CC(=O)OC(C)(C)C)CCCC[C@@H]1C=C2 [Compound 6, 2-[(4aS,10aR)-6-methoxy-2,3,4,10a-tetrahydro-1H-phenanthren-4a-yl]ethyl-dimethyl-[2-[(2-methylpropan-2-yl)oxy]-2-oxoethyl]azanium] |  | selective over 14-3-3ζ/p27 |  |  | no observable stabilisation effect | Ns ^d | > 250 µM | 33.5 ± 10.7 µM |  |
| Fc1ccc(OCc2nn3c(Cn4cnc5ccccc54)nnc3s2)cc1 [Compound 8, 3-(benzimidazol-1-ylmethyl)-6-[(4-fluorophenoxy)methyl]-[1,2,4]triazolo[3,4-b][1,3,4]thiadiazole] |  | weak and equipotent stabiliser of both the 14-3-3γ/SLP76 and 14-3-3ζ/p27 systems | 53.9 ± 17.1 µM | 69.1 ± 22.6 µM | orthogonally confirmed by SPR | 61.2% |  |  |  |
| COc1ccccc1-c1nnc2scnn12 [Compound 9, 3-(2-methoxyphenyl)-[1,2,4]triazolo[3,4-b][1,3,4]thiadiazole] |  | modest level of selectivity in stabilising 14-3-3ζ/p27 over 14-3-3γ/SLP76 | 5.8 ± 2.2 µM | 24.5 ± 5.8 µM | orthogonally confirmed by SPR | 58.7% |  |  |  |
| CC1=Nn2c(nnc2-c2ccoc2C)SC1 [Compound 10, 6-methyl-3-(2-methylfuran-3-yl)-7H-[1,2,4]triazolo[3,4-b][1,3,4]thiadiazine] |  | modest level of selectivity in stabilising 14-3-3ζ/p27 over 14-3-3γ/SLP76 | 16.5 ± 10.6 µM | 70.1 ± 8.7 µM | no observable stabilisation | Ns ^d |  |  |  |
| Cc1ccc(-c2ccc3c(n2)C(=N)NC3CCc2ccc(O)cc2)o1 (centres unmarked) [Compound 11, 4-[2-[7-imino-2-(5-methylfuran-2-yl)-5,6-dihydropyrrolo[3,4-b]pyridin-5-yl]ethyl]phenol] |  |  | 129 ± 70.5 µM | 29.7 ± 21.8 µM |  |  |  |  |  |
| CC(C)CNC(=O)c1ccc2c(c1)nc1n2CCN(C(C)C)C1=O [Compound 12, N-(2-methylpropyl)-1-oxo-2-propan-2-yl-3,4-dihydropyrazino[1,2-a]benzimidazole-8-carboxamide] |  |  | 0.43 ± 0.37 µM | 3.2 µM and 3.8 µM | orthogonally confirmed by SPR | 67.4% |  |  | ~9 fold |
| S=c1[nH]nc(Cn2nnc3ccccc32)o1 [Compound 13, 5-(benzotriazol-1-ylmethyl)-1,3,4-oxadiazole-2-thiol] |  |  | > 250 µM | 4.9 ± 1.1 µM |  | Ns ^d |  |  |  |
| CC(=O)CSc1nc2c(c(=O)[nH]c(=O)n2C)n1Cc1cccc(C)c1 [Compound 15, 3-methyl-7-[(3-methylphenyl)methyl]-8-(2-oxopropylsulfanyl)purine-2,6-dione] |  |  | 11.6 ± 6.1 µM | 17.1 ± 5.2 µM |  |  |  |  |  |
| O=C(c1ccc(Cl)cc1)n1c(Cn2nnc(-c3cccc4ccccc34)n2)n[nH]c1=S [Compound 16, (4-chlorophenyl)-[3-[(5-naphthalen-1-yltetrazol-2-yl)methyl]-5-sulfanylidene-1H-1,2,4-triazol-4-yl]methanone] |  |  | 80.6 ± 53.4 µM | 1.2 ± 0.7 µM |  |  |  |  |  |
